Active and inactive are the calls of the source. The calls are words filed in the database; no cut-off is given here.
Columns and labels:
Format in all cases: functional, cell-based
[1] = Cytotoxicity against rat H4IIE cells after 24 hrs by MTT assay
H4IIE [2] = experiment: Cytotoxicity against rat H4IIE cells assessed as nuclear fragmentation after 24 hrs by Hoechst staining
H4IIE [3] = experiment: Cytotoxicity against rat H4IIE cells assessed as caspase-3/7 activation after 24 hrs by Apo-ONE assay

| Structure (SMILES) | IC50 [1] [µM] | Activity (H4IIE [2]) | Activity (H4IIE [3]) |
| --- | --- | --- | --- |
| O=C1C[C@@H](c2ccc(O)cc2)Oc2cc(O)cc(O)c21 [NARINGENIN] | > 100 |  |  |
| C=C(C)C(O)Cc1cc([C@@H]2CC(=O)c3c(O)cc(O)cc3O2)cc(CC=C(C)C)c1O (some centres not stated) [ABYSSINOFLAVANONE VII] | 3.5 | Active | Active |
| COc1c(CC=C(C)C)cc([C@@H]2CC(=O)c3c(O)cc(O)cc3O2)cc1CC=C(C)C | 5 |  |  |
| CC(C)=CCc1cc([C@@H]2CC(=O)c3ccc(O)cc3O2)cc(CC=C(C)C)c1O [ABYSSINONE IV] | 15 |  |  |
| O=C1C[C@@H](c2ccc(O)cc2)Oc2cc(O)ccc21 [LIQUIRTIGENIN] | > 100 |  |  |

Reference: ChEMBL document CHEMBL1149848, “Prenylated flavonoid derivatives from the bark of Erythrina addisoniae” (J Nat Prod, 2008)
